“Also recorded” adds a separate entry of the source. Values belong to the molecule of their own block, whether it stands above or below them.
Legend:
G-CSF receptor [1] = biological target: T1, G-CSF receptor (Mus musculus, UniProt P40223); assay: Luciferase assay on NFS60 cells in the presence of EDTA / metal chlorides; type: cell-based, murine; conditions: for effect of EDTA on agonist (luciferase) activity: EDTA 1.2 and 5 millimolar, media contained 1-5 uM zinc(II) (FIGS. 3, 4)
T1 construct: they express endogenous G-CSF receptors; endogenous in cells; host or cells: NFS60 murine myeloid cell line with a G-CSF-responsive luciferase reporter
T1 sequence (P40223 26-837): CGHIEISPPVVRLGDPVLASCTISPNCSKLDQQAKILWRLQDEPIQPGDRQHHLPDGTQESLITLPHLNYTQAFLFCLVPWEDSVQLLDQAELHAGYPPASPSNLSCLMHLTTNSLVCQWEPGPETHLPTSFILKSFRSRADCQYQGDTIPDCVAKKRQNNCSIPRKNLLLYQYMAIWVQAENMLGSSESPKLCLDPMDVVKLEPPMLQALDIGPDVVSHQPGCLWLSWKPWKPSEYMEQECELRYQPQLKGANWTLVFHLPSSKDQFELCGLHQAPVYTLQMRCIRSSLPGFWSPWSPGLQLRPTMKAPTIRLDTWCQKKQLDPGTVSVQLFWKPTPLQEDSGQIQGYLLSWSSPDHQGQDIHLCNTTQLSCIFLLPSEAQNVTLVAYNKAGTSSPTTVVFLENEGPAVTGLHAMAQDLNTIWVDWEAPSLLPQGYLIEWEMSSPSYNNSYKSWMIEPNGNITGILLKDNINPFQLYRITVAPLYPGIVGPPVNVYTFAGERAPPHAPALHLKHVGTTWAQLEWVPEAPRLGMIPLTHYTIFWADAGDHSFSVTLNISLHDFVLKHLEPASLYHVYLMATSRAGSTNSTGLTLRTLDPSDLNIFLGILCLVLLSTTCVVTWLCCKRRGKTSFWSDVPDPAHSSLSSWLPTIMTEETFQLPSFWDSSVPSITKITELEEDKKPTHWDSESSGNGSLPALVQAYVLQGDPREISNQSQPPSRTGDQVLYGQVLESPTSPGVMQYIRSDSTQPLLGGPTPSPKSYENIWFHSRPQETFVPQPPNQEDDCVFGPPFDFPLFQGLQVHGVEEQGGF
Experimental: FIG. 3 is an analysis of the effect of ethylenediaminetetraacetic acid (as used herein—EDTA) on the activity of Compound 1a (from Example 1) in NFS60 cells. Shown are luciferase response curves of Compound 1a at the indicated concentrations and in the presence of various concentrations of EDTA. […] The media in this assay contained a small amount (1-5 uM) of zinc(II).
FIG. 4 is an analysis of the effect of EDTA on the activity of recombinant G-CSF on NFS60 cells. Shown are luciferase response curves of recombinant G-CSF at the indicated concentrations and in the presents of various concentrations of EDTA. EDTA at both 1.2 and 5 millimolar has little effect on the activity of recombinant G-CSF in the assay.
FIGS. 5 and 6 depict an analysis of the activity of metal chlorides alone on the basal luciferase level of NFS60 cells. Shown are luciferase response curves of the indicated metal chlorides at various concentrations. None of the metals have a meaningful effect on the basal luciferase levels at concentrations equal or less than 10 micromolar.
FIGS. 7 and 8 show an analysis of the effect of metal chlorides on the EDTA depleted activity of Compound 1a on NFS60 cells. Shown are luciferase response curves as effected by the indicated metal chlorides. […] None of the other metals tested could overcome the inhibitory effect of EDTA.
In order to determine the requisiteness of metal chelation of small organic molecules to agonist activity at dimeric cell-surface receptors, the above luciferase assay was performed on the G-CSF receptor in the presence of EDTA. EDTA is a strong metal chelator and had as its only effect, the removal of zinc and other metals from the ligand-receptor interaction.

G-CSF receptor [2] = biological target: T1, G-CSF receptor; assay: Luciferase reporter gene assay on G-CSF-responsive NFS60 cell line; type: cell-based, murine; conditions: NFS60 cells, absence of zinc (FIG. 1)
Experimental: Activity of compound 1a is below the threshold of 150% over background. The study was performed as a Luciferase assay configured on the G-CSF-responsive NFS60 cell line as described in Tian et al., Science 281, 257-259 (1998). The experiments shown in FIGS. 2-8 used the same NFS60 cell line.
Compounds of the present invention are tested for potency as agonist of a dimeric cell-surface receptor in a Luciferase reporter gene assay such as described in Tian et al., Science 281, 257-259 (1998). For example, for G-CSF NFS60 cells (Holmes, et al., Proc. Natl. Acad. Sci. USA 82: 6687-6691 (1985)) are selected because they express endogenous G-CSF receptors closely matching the pattern of STAT (signal transducers and activators of transcription) activation observed in primary murine and human bone marrow cells.

Molecule: zinc (II) [reference compound]
effect of metal chlorides on the EDTA depleted luciferase activity of Compound 1a (G-CSF receptor [1]; 50 micromolar EDTA, metal 0.5-10 micromolar (FIGS. 7, 8)): can overcome the inhibition in luciferase activity

luciferase activity over background (G-CSF receptor [2]): < 150%
Molecule: c1ccc(C23NC(=Nc4nc5ccccc5[nH]4)NC2(c2ccccn2)NC(=Nc2nc4ccccc4[nH]2)N3)nc1 (stereo not shown) [Compound 1a, 2,5-Bis[2-benzimidazolylimino]-3a,6a-bis(2-pyridyl)-1,2,3,3a,4,5,6,6a-octahydroimidazo[4,5-d]imidazole]
effect of EDTA on agonist (luciferase) activity (G-CSF receptor [1]): antagonized the activity; also recorded: abrogated

B1: recombinant G-CSF: the natural ligand (i.e. G-CSF or recombinant G-CSF) of the G-CSF receptor (protein, UniProt P09919 31-207, looked up)
Granulocyte …: TPLGPASSLPQSFLLKCLEQVRKIQGDGAALQEKLVSECATYKLCHPEELVLLGHSLGIPWAPLSSCPSQALQLAGCLSQLHSGLFLYQGLLQALEGISPELGPTLDTLQLDVADFATTIWQQMEELGMAPALQPTQGAMPAFASAFQRRAGGVLVASHLQSFLEVSYRVLRHLAQP
effect of EDTA on agonist (luciferase) activity (G-CSF receptor [1]): little effect; also recorded: not mediated by metal ions
